Results as given in publication PMC7433010, “Exploration of multi‐target effects of 3‐benzoyl‐5‐hydroxychromen‐2‐one in Alzheimer’s disease cell and mouse models” (Aging Cell, 2020).
Where two headings read alike, the source gives them in different places.

How the values were obtained:
[1] = MTT cytotoxicity in uninduced retinoic acid‐differentiated SH‐SY5Y cells; assay type: cell-based; conditions: human
Method: (§1) Licochalcone A and five derivative LM compounds were tested (Figure 1a). All six compounds were soluble up to 100 μM in a cell culture medium (Figure S1a). Based on molecular weight (MW), hydrogen bond donors (HBD), hydrogen bond acceptors (HBA), and calculated octanol/water partition coefficient (cLogP), all six compounds meet Lipinski's criteria in predicting oral bioavailability (Lipinski, Lombardo, Dominy, & Feeney, 1997) (Figure S1b). […] To choose the optimal treatment dose used for the best efficacy of the candidate compounds, a specific type of biphasic dose response of a compound called hormesis should take into consideration. Evidence has shown that a wide range of pharmaceutical products display a hermetic dose‐response feature, characterized by a low‐dose stimulation and a high‐dose inhibition (Calabrese et al., 2018; Concetta Scuto et al., 2019; Pilipenko et al., 2019). Therefore, we tested the compounds at a range of doses to find the optimal dose for the best therapeutic effect and the least cytotoxicity. Firstly, MTT assay was performed using uninduced ∆K280 TauRD‐DsRed 293 and retinoic acid‐differentiated SH‐SY5Y cells following treatment with the test compounds (0.1–10 μM) for 3 (for 293 cells) or 7 (for SH‐SY5Ycells) days. […] Congo red is an amyloidogenic dye known to reduce Aβ neurotoxicity (Lorenzo & Yankner, 1994).
(§2) Licochalcone A was purchased from Sigma-Aldrich, St. Louis, MO, USA. In-house LM compounds were synthesized and characterized by NMR spectrum as described (Lee et al., 2012, 2015, 2018). Tet-On ∆K280 TauRD-DsRed 293 and SH-SY5Y cells (Chang et al., 2016) were cultured in Dulbecco’s modified Eagles medium (DMEM) (293) or DMEM-F12 (SH-SY5Y) containing 10% fetal bovine serum (Invitrogen, Carlsbad, CA, USA), 5 μg/ml of blasticidin, and 100 μg/ml of hygromycin (InvivoGen, San Diego, CA, USA). Compound cytotoxicity was assessed by colorimetric assay for measuring cell metabolic activity. Briefly, 5 × 10^4 cells were plated (48-well plates), grown for 20 h, and treated with the test compounds ([…]). […], 20 µl of 3-(4,5-dimethylthiazol-2-yl)-2,5-diphenyltetrazolium bromide (MTT, 5 mg/ml in PBS; Sigma-Aldrich) was added to the cells and incubated at 37°C for 3 h. Then 200 µl of lysis buffer (10% Triton X-100, 0.1 N HCl, 18% isopropanol) was added and the absorbance of the insoluble product at OD 570 nm was measured by a microplate reader (FLx800 fluorescence microplate reader, Bio-Tek, Winooski, VT, USA). The half-maximal inhibitory concentration (IC50) was calculated using the interpolation method.
(§3) Figure S1. Test compounds. (a) Solubility (in cell culture medium) of test compounds. (b) Molecular weight (MW), hydrogen bond donor (HBD), hydrogen bond acceptor (HBA), calculated octanol-water partition coefficient (cLogP), polar surface area (PSA), and predicted blood-brain barrier (BBB) score of test compounds. (c) Cytotoxicity of test compounds against ∆K280 TauRD-DsRed 293 and SH-SY5Y cells using the MTT assay. Uninduced 293 cells were plated on day 1 and treated with 0.1–10 μM test compounds on day 2. Cell viability was measured on day 5 (n = 3). In addition, uninduced SH-SY5Y cells were seeded with all trans retinoic acid (RA; 10 µM) on day 1 and treated with 0.1–10 μM test compounds on day 2. Cell viability was measured on day 9 (n = 3). To normalize, the relative viability in compound untreated cells was set at 100%. IC50 values are listed.

[2] = MTT cytotoxicity in uninduced ∆K280 TauRD‐DsRed 293 cells; assay type: cell-based; conditions: human
Method: as §1, §2, §3

SMILES | IC50 at 7 days [1] [µM] | IC50 at 3 days [2] [µM] | IC50 at 7 days ([1]; uninduced retinoic acid‐differentiated SH‐SY5Y cells, 7 days treatment, read-out: IC50 (MTT cytotoxicity)) [µM] | IC50 at 3 days ([2]; uninduced Tet-On ∆K280 TauRD-DsRed 293 cells, uninduced 293 cells, 3 days treatment, read-out: IC50 (MTT cytotoxicity)) [µM]
COc1ccc(C(=O)/C=C/c2cc(Br)ccc2O)cc1 [LM‐004] | 4.8 | 6.4 | – | –
O=C(c1ccccc1)c1cc2c(O)cccc2oc1=O [LM‐031, 3‐benzoyl‐5‐hydroxychromen‐2‐one] | 6.8 | 55.9 | – | –
Nc1c(/N=N/c2ccc(-c3ccc(/N=N/c4cc(S(=O)(=O)O)c5ccccc5c4N)cc3)cc2)cc(S(=O)(=O)O)c2ccccc12 [congo red, reference compound] | 27.4 | 36.4 | – | –
C=CC(C)(C)c1cc(/C=C/C(=O)c2ccc(O)cc2)c(OC)cc1O [licochalcone A, reference compound] | – | – | 5.8 | 7
